Measurements: patent US8426408B2, “Pyrimidine inhibitors of kinases” (AbbVie Inc., priority 2009, dated 2013)
Values belong to the compound of their own block, whether it stands above or below them.

Experiments:
[1] = test system: NCI-H1299 cells; experiment: Induction of polyploidy in H1299; type: cell-based, Human; conditions: NCI-H1299, 48 hours; for EC15: Homo sapiens, read-out: EC15 (concentration of inhibitor necessary to induce polyploidy in 15% of cells)
How it was run: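 NCI-H1299 cells in RPMI 1640/10% FCS were treated with inhibitor concentrations in duplicate for 48 h at 37 C, then formalin-fixed and Hoechst-stained. Nuclear area was measured by high-content imaging, with polyploid (≥4N) defined as >750 μ^2. EC15 was derived by least-squares fit of log dose-response.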

[2] = target: T1, Aurora B (Homo sapiens, UniProt Q96GD4); experiment: Aurora B enzyme inhibition (time-resolved fluorescence, histone H3 peptide); type: biochemical; conditions: 1 mM ATP
T1 construct: Active Aurora B enzyme (recombinant residues 1-344)
How it was run: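 Recombinant Aurora B (residues 1-344) with GST-INCENP phosphorylated biotinylated histone H3 (1-21) peptide at 1 mM ATP in HEPES pH 7.4 with MgCl2, orthovanadate and Triton X-100 for 1 h. After EDTA stop, the phosphopeptide was detected by TR-FRET (Eu-cryptate anti-phospho-H3 / SA-APC, 665/615 nm ratio). IC50 from an exponential fit.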

[3] = target: T2, Aurora A (Homo sapiens, UniProt O14965); experiment: Aurora A enzyme inhibition (time-resolved fluorescence, STK substrate-2); type: biochemical; conditions: 1 mM ATP
T2 sequence (O14965 1-403): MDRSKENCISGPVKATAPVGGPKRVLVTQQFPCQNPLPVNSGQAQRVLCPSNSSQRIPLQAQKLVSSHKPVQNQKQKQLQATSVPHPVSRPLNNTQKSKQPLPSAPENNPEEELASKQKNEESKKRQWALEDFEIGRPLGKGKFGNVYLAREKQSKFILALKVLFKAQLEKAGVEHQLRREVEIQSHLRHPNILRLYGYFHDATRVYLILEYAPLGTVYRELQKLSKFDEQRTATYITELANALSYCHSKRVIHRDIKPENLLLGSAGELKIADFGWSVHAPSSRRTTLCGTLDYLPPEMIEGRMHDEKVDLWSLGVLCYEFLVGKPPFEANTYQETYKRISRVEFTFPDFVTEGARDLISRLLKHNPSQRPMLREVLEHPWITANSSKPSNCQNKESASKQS
How it was run: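 Active enzyme incubated 1 h with biotinylated STK substrate-2, 1 mM ATP and inhibitor in Hepes pH 7.4 with MgCl2, orthovanadate and Triton X-100. EDTA stop; phosphopeptide detected by Eu-cryptate anti-phospho-STK/SA-XL665 TR-FRET (665/615 nm ratio); IC50 by exponential fit.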

[4] = target: KDR (Homo sapiens, UniProt P35968); experiment: KDR HTRF in vitro kinase assay; type: biochemical; design: purified enzyme (His6-KDR 789-1354, MW 63 kD); His6 (N); conditions: 1 mM ATP; read-out: KDR enzyme inhibition data (Ki)
How it was run: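 His6-KDR 789-1354 (7 ng/well) with 0.5 μM biotinylated peptide substrate and 1 mM ATP in HEPES pH 7.1, MgCl2/MnCl2, 60 min at room temperature. EDTA-quenched, detected by streptavidin-XL-665 plus Eu-kryptate anti-phosphotyrosine HTRF after 3 h; IC50 from 620/665 nm ratio.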

T1 sequence (Q96GD4 whole entry, the tested form may be a part): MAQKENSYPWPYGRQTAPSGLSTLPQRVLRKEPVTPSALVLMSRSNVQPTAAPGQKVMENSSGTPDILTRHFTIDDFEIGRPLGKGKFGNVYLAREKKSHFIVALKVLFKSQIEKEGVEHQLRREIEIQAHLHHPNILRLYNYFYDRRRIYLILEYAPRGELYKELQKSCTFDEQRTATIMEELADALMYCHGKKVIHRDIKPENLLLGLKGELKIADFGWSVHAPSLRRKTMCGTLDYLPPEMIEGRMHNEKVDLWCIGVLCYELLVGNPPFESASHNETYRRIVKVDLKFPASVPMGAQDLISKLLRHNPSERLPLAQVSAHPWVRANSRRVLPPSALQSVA
T1 sequence (Q9NQS7 826-918 partner limits assumed): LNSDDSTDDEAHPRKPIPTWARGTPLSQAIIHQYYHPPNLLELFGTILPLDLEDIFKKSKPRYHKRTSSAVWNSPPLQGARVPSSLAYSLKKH
Sequence of KDR (P35968 789-1354): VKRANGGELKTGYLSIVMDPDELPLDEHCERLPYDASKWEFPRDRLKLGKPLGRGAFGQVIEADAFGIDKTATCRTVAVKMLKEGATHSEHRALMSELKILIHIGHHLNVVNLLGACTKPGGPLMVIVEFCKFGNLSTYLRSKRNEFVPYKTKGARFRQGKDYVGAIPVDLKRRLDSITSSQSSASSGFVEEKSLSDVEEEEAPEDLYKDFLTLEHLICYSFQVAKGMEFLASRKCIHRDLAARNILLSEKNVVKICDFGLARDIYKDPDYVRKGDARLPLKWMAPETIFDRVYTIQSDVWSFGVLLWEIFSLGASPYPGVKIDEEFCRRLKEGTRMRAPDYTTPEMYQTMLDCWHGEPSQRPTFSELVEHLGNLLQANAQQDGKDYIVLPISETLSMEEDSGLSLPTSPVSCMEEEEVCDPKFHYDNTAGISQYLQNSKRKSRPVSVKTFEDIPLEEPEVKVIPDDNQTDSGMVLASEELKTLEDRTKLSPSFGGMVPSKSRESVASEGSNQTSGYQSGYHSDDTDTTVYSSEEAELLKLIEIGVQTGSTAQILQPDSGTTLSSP

SMILES: CCn1cc(Nc2ncc(Cl)c(N[C@@H]3[C@H](C(N)=O)[C@@H]4C=C[C@H]3C4)n2)cn1.CCn1cc(Nc2ncc(Cl)c(N[C@H]3[C@@H](C(N)=O)[C@H]4C=C[C@@H]3C4)n2)cn1 (mixture of isomers) [Example 121, (1S,2R,3S,4R)-3-({5-chloro-2-[(1-ethyl-1H-pyrazol-4-yl)amino]pyrimidin-4-yl}amino)bicyclo[2.2.1]hept-5-ene-2-carboxamide and (1R,2S,3R,4S)-3-({5-chloro-2-[(1-ethyl-1H-pyrazol-4-yl)amino]pyrimidin-4-yl}amino)bicyclo[2.2.1]hept-5-ene-2-carboxamide]
EC15 (concentration of inhibitor necessary to induce polyploidy in 15% of cells) [1]: A (“A” represents an EC15 of less than 0.1 μM)
Ki [2]: < 100 nM
Ki [3]: < 100 nM
Ki [4]: < 100 nM

SMILES: NC(=O)[C@@H]1CCC[C@@H]1Nc1nc(Nc2cnn(C3CCNCC3)c2)ncc1Cl.NC(=O)[C@H]1CCC[C@H]1Nc1nc(Nc2cnn(C3CCNCC3)c2)ncc1Cl (mixture of isomers) [Example 136, (1S,2R)-2-[(5-chloro-2-{[1-(piperidin-4-yl)-1H-pyrazol-4-yl]amino}pyrimidin-4-yl)amino]cyclopentanecarboxamide and (1R,2S)-2-[(5-chloro-2-{[1-(piperidin-4-yl)-1H-pyrazol-4-yl]amino}pyrimidin-4-yl)amino]cyclopentanecarboxamide]
EC15 (concentration of inhibitor necessary to induce polyploidy in 15% of cells) [1]: A (“A” represents an EC15 of less than 0.1 μM)
Ki [2]: < 100 nM
Ki [3]: < 100 nM
Ki [4]: 100 to 1000 nM

SMILES: Cn1cc(Nc2ncc(Cl)c(N[C@@H]3[C@H](C(N)=O)[C@H]4CC[C@@H]3O4)n2)cn1.Cn1cc(Nc2ncc(Cl)c(N[C@H]3[C@@H](C(N)=O)[C@@H]4CC[C@H]3O4)n2)cn1 (mixture of isomers) [Example 141, (1S,2R,3S,4R)-3-({5-chloro-2-[(1-methyl-1H-pyrazol-4-yl)amino]pyrimidin-4-yl}amino)-7-oxabicyclo[2.2.1]heptane-2-carboxamide and (1R,2S,3R,4S)-3-({5-chloro-2-[(1-methyl-1H-pyrazol-4-yl)amino]pyrimidin-4-yl}amino)-7-oxabicyclo[2.2.1]heptane-2-carboxamide]
EC15 (concentration of inhibitor necessary to induce polyploidy in 15% of cells) [1]: B (“B” represents an EC15 of between 0.1 μM and 1 μM)
Ki [2]: < 100 nM
Ki [3]: < 100 nM
Ki [4]: < 100 nM

SMILES: Cn1cc(Nc2ncc(Cl)c(N[C@@H]3CC[C@@H]3C(N)=O)n2)cn1.Cn1cc(Nc2ncc(Cl)c(N[C@H]3CC[C@H]3C(N)=O)n2)cn1 (mixture of isomers) [Example 151, (1S,2R)-2-({5-chloro-2-[(1-methyl-1H-pyrazol-4-yl)amino]pyrimidin-4-yl}amino)cyclobutanecarboxamide and (1R,2S)-2-({5-chloro-2-[(1-methyl-1H-pyrazol-4-yl)amino]pyrimidin-4-yl}amino)cyclobutanecarboxamide]
EC15 (concentration of inhibitor necessary to induce polyploidy in 15% of cells) [1]: A (“A” represents an EC15 of less than 0.1 μM)
Ki [2]: < 100 nM
Ki [3]: < 100 nM
Ki [4]: < 100 nM

SMILES: CCn1cc(Nc2ncc(Cl)c(N[C@H]3[C@@H](C(N)=O)[C@@H]4C=C[C@H]3C4)n2)cn1 (racemic) [Example 30, (1S,2S,3R,4R)-3-({5-chloro-2-[(1-ethyl-1H-pyrazol-4-yl)amino]pyrimidin-4-yl}amino)bicyclo[2.2.1]hept-5-ene-2-carboxamide and (1R,2R,3S,4S)-3-({5-chloro-2-[(1-ethyl-1H-pyrazol-4-yl)amino]pyrimidin-4-yl}amino)bicyclo[2.2.1]hept-5-ene-2-carboxamide]
EC15 (concentration of inhibitor necessary to induce polyploidy in 15% of cells) [1]: A (“A” represents an EC15 of less than 0.1 μM)
Ki [2]: < 100 nM
Ki [3]: < 100 nM
Ki [4]: < 100 nM

SMILES: CCn1cc(Nc2ncc(Cl)c(NC3C4CCC(O4)C3C(N)=O)n2)cn1 (racemic) [Example 142, (1S,2R,3S,4R)-3-({5-chloro-2-[(1-ethyl-1H-pyrazol-4-yl)amino]pyrimidin-4-yl}amino)-7-oxabicyclo[2.2.1]heptane-2-carboxamide and (1R,2S,3R,4S)-3-({5-chloro-2-[(1-ethyl-1H-pyrazol-4-yl)amino]pyrimidin-4-yl}amino)-7-oxabicyclo[2.2.1]heptane-2-carboxamide]
EC15 (concentration of inhibitor necessary to induce polyploidy in 15% of cells) [1]: B (“B” represents an EC15 of between 0.1 μM and 1 μM)
Ki [2]: < 100 nM
Ki [3]: < 100 nM
Ki [4]: < 100 nM

SMILES: CC(C)NC(=O)C1CCCC1Nc1nc(Nc2cnn(C3CCNCC3)c2)ncc1Cl (racemic) [Example 163, (1S,2R)-2-[(5-chloro-2-{[1-(piperidin-4-yl)-1H-pyrazol-4-yl]amino}pyrimidin-4-yl)amino]-N-isopropylcyclopentanecarboxamide and (1R,2S)-2-[(5-chloro-2-{[1-(piperidin-4-yl)-1H-pyrazol-4-yl]amino}pyrimidin-4-yl)amino]-N-isopropylcyclopentanecarboxamide]
EC15 (concentration of inhibitor necessary to induce polyploidy in 15% of cells) [1]: A (“A” represents an EC15 of less than 0.1 μM)
Ki [2]: < 100 nM
Ki [3]: < 100 nM
Ki [4]: 100 to 1000 nM

SMILES: CN(C)CC(=O)N1CCC(n2cc(Nc3ncc(Cl)c(N[C@H]4[C@@H](C(N)=O)[C@@H]5C=C[C@H]4C5)n3)cn2)CC1 [Example 89, (1S,2S,3R,4R)-3-{[5-chloro-2-({1-[1-(N,N-dimethylglycyl)piperidin-4-yl]-1H-pyrazol-4-yl}amino)pyrimidin-4-yl]amino}bicyclo[2.2.1]hept-5-ene-2-carboxamide]
EC15 [1]: < 0.1 µM
Ki [2]: < 100 nM
Ki [3]: < 100 nM
Ki [4]: < 100 nM

SMILES: CC(=O)N1CCC(n2cc(Nc3ncc(Cl)c(N[C@H]4[C@@H](C(N)=O)[C@@H]5C=C[C@H]4C5)n3)cn2)CC1 [Example 92, (1S,2S,3R,4R)-3-[(2-{[1-(1-acetylpiperidin-4-yl)-1H-pyrazol-4-yl]amino}-5-chloropyrimidin-4-yl)amino]bicyclo[2.2.1]hept-5-ene-2-carboxamide]
EC15 [1]: < 0.1 µM
Ki [2]: < 100 nM
Ki [3]: < 100 nM
Ki [4]: < 100 nM

Now from value to compound, other results behind:

Ki [2]: < 100 nM
Ki [3]: < 100 nM
Ki [4]: < 100 nM
SMILES: CNC(=O)Cn1cc(Nc2ncc(Cl)c(N[C@@H]3[C@H]4CC[C@H](C4)[C@@H]3C(N)=O)n2)cn1 [Example 88, (1R,2S,3R,4S)-3-{[5-chloro-2-({1-[2-(methylamino)-2-oxoethyl]-1H-pyrazol-4-yl}amino)pyrimidin-4-yl]amino}bicyclo[2.2.1]heptane-2-carboxamide]
EC15 [1]: 0.1 to 1 µM

Ki [2]: < 100 nM
Ki [3]: < 100 nM
Ki [4]: < 100 nM
SMILES: CN1CCN(CCn2cc(Nc3ncc(Cl)c(N[C@@H]4[C@H]5CC[C@H](C5)[C@@H]4C(N)=O)n3)cn2)CC1 [Example 90, (1R,2S,3R,4S)-3-{[5-chloro-2-({1-[2-(4-methylpiperazin-1-yl)ethyl]-1H-pyrazol-4-yl}amino)pyrimidin-4-yl]amino}bicyclo[2.2.1]heptane-2-carboxamide]
EC15 [1]: 0.1 to 1 µM

Ki [2]: < 100 nM
Ki [3]: < 100 nM
Ki [4]: < 100 nM
SMILES: CN1CCN(CCn2cc(Nc3ncc(Cl)c(N[C@H]4[C@@H](C(N)=O)[C@@H]5C=C[C@H]4C5)n3)cn2)CC1 [Example 91, (1S,2S,3R,4R)-3-{[5-chloro-2-({1-[2-(4-methylpiperazin-1-yl)ethyl]-1H-pyrazol-4-yl}amino)pyrimidin-4-yl]amino}bicyclo[2.2.1]hept-5-ene-2-carboxamide]
EC15 [1]: < 0.1 µM

Ki [2]: < 100 nM
Ki [3]: < 100 nM
Ki [4]: < 100 nM
SMILES: NC(=O)[C@H]1[C@@H]2CC[C@@H](C2)[C@H]1Nc1nc(Nc2cnn(CCO)c2)ncc1Cl [Example 93, (1R,2S,3R,4S)-3-[(5-chloro-2-{[1-(2-hydroxyethyl)-1H-pyrazol-4-yl]amino}pyrimidin-4-yl)amino]bicyclo[2.2.1]heptane-2-carboxamide]
EC15 [1]: < 0.1 µM

Ki [2]: < 100 nM
Ki [3]: < 100 nM
Ki [4]: < 100 nM
SMILES: CN1CCC(Cn2cc(Nc3ncc(Cl)c(N[C@H]4[C@@H](C(N)=O)[C@@H]5C=C[C@H]4C5)n3)cn2)CC1 [Example 97, (1S,2S,3R,4R)-3-{[5-chloro-2-({1-[(1-methylpiperidin-4-yl)methyl]-1H-pyrazol-4-yl}amino)pyrimidin-4-yl]amino}bicyclo[2.2.1]hept-5-ene-2-carboxamide]
EC15 [1]: 0.1 to 1 µM
